Measured values: patent US20130096054A1, “LATENT HUMAN IMMUNODEFICIENCY VIRUS REACTIVIATION” (priority 2010, published 2013)
Several values for one entry are separate records, joined by “and”; a condition that tells them apart may be missing. Equal entries are not always repeated. *1 amine or outer side, *2 acyl side, *3 side chain or, on linkers, in order; H or OH if unused. Where a SMILES comes first, the peptide text is derived from it. Bridges are numbered along the chain shown (N, C = ends). Roman numbers before positions name the chains, in order. [ ]: non-standard residue; d: D form. Actinocin(9to1) = Cc1c2oc3c(C)ccc(C(=O)[*:1])c3nc-2c(C(=O)[*:2])c(N)c1=O; NMeV = CN[C@H](C(=O)O)C(C)C; Sar = CNCC(=O)O

Tests used:
[1] = tested on: chronically actively infected T cell lines JNLG#35 and JNLG#44; assay: Active HIV-1 transcription in chronically actively infected GFP-reporter T cells (GFP MCF); format: cell-based; settings: 48 hours after addition
Experimental: Changes in HIV-1 transcription levels were determined after 48 hours by measuring GFP mean channel fluorescence intensity (GFP MCF). GFP MCF was plotted over the drug concentration for dactinomycin (FIG. 12A), the DNA intercalators daunorubicin (DM) (FIG. 12B) and rebeccamycin (RM) (FIG. 12C), as well as the transcription inhibitors ICRF-193 (FIG. 12D), DRB (FIG. 12E) and α-amanitin (FIG. 12F). The size of symbols indicates the respective cell viability in the sample (size range adjusted to 5-95%).
For this purpose, each of the compounds was titrated over a relevant range of concentrations on two chronically actively infected T cell lines (JNLG#35 and JNLG#44). These clonal cell lines are infected with a GFP-reporter virus. Forty eight hours after addition of the compounds, the effect of each compound on HIV-1 transcription was determined by flow cytometric analysis quantifying GFP mean channel fluorescence intensity (MCF).

[2] = tested on: latently HIV-1 infected EF7 cells; assay: HIV-1 reactivation in latently HIV-1 infected EF7 T cells (converse sense integration); format: cell-based; settings: TNF-α after 4 ng/ml dactinomycin for 18 hours
Experimental: FIGS. 13A-B show the effect of dactinomycin on latent infection as a function of the orientation of integration relative to the direction of host-gene transcription. HIV-1 can integrate in the same transcriptional orientation as the host-gene or in the converse sense. Two latently HIV-1 infected T cell lines, which were determined to have HIV-1 integrated in the same sense orientation (CA5 cells) (FIG. 13A) and in the converse sense orientation (EF7 cells) (FIG. 13B) were used. For either cell line, the host-gene name, the position of integration and the chromosome number is given. For either T cell line, reactivation levels achieved by TNF-α treatment alone or by TNF-α stimulation following pretreatment with 4 ng/ml dactinomycin for 18 hours are shown. Reactivation levels were determined using flow cytometric analysis for GFP expression. The gray dotted line represents maximum achievable reactivation levels using PMA.

[3] = tested on: latently HIV-1 infected CA5 T cells
Experimental: CA5 T cells were pretreated with increasing concentrations of dactinomycin (DM) (FIG. 11A), the DNA intercalator daunorubicin (DR) (FIG. 11B), or the transcription inhibitors DRB (FIG. 11 C) and α-amanitin (FIG. 11D) (concentrations indicated). The cells were then left unstimulated (white circles) or activated with a sub-optimal concentration of HRF (black circles). Reactivation levels were determined as the percentage of GFP-positive cells 24 hours after stimulation. Viability of the cells correlates with the size of the symbol (size range adjusted to 5-95%).
Infection levels in the cell cultures were monitored by flow cytometric analysis of EGFP expression. Flow cytometric analysis was performed on a GUAVA EasyCyte (Millipore; Billerica, Mass.), or a LSRII (Becton & Dickinson; Franklin Lakes, N.J.).
Bacteria from various sources were isolated on TSA II agar plates containing 5% sheep blood. Bacterial isolates were then grown in RPMI 1640 medium supplemented with 10% FBS. After two days of incubation at 37° C. bacteria were pelleted and resuspended in RPMI medium to an optical density (OD600) of 8, aliquoted and frozen at −80° C. Unless otherwise indicated, Massilia timonae was grown in RPMI 1640 medium supplemented with 10% FBS. Typically, medium was inoculated with Massilia timonae from frozen stocks to an OD600 of 0.01. After 48 hours at 37° C., the culture was centrifuged at 3200 g to separate bacteria from the culture medium. Bacteria were resuspended in fresh medium to an OD600 of 8 and frozen to be used as references and stock cultures. The supernatant was then centrifuged at 10,000 g for 20 minutes and sterilized by passage through an 0.2 μm PVDF filter with low protein binding ability. HRF activity was determined by its ability to reactivate latent HIV-1 infection in CA5 cells. Only supernatants of which 6 μl reactivated infection in at least 60% of CA5 cells were used to study HRF properties.
(§1) Infection levels in the cell cultures were monitored by flow cytometric (FCM) analysis of GFP expression. FCM analysis was performed on a GUAVA EasyCyte (GUAVA Technologies, Inc.; Millipore; Billerica, Mass.) and a BD FACSCalibur or a LSR11 (Becton & Dickinson; Franklin Lakes, N.J.). Cell sorting experiments were performed using a FACSAria™ Flow Cytometer (Becton&Dickinson). Data analysis was performed using either CellQuest (Becton&Dickinson) or GUAVA Express (GUAVA Technologies, Inc.).
To identify the optimal concentration of dactinomycin, CA5 T cells were pretreated with increasing concentrations of dactinomycin (0.0001 and 1 μg/ml), and then left untreated or stimulated with a sub-optimal concentration of HRF or TNF-α. […] Twenty four hours after activator addition, levels of HIV-1 reactivation were determined as the percentage of GFP-positive cells using flow cytometric analysis, which allowed for the simultaneous determination of cell viability.

[4] = tested on: latently HIV-1 infected J89GFP T cells; assay: HIV-1 reactivation in latently HIV-1 infected J89GFP T cells (flow cytometry / HTS); format: cell-based
Experimental: as §1

[5] = tested on: latently HIV-2 infected J2574 reporter T cells (HIV-2 7312A); assay: Reactivation of latent HIV-2 infection in J2574 reporter T cells; format: cell-based
Experimental: J2574 reporter T cells were infected with HIV-2 7312A and a latently infected cell population was established (>90% latently infected cells). The cell population was then pretreated with varying concentrations of dactinomycin (0-8 ng/ml) for 18 hours and then either left untreated (C) or stimulated with a sub-optimal dose of HRF, which by itself triggered reactivation in 10% of the cells. Reactivation levels were determined 24 hours post HRF activation by quantifying the level of GFP-positive cells using flow cytometric analysis.
J2574 reporter T cells were generated by retrovirally transducing Jurkat T cells with a HIV-1 reporter construct (p2574) in which the HIV-1 LTR controls the expression of GFP. The HIV-1 LTR and the GFP gene are separated by a 2,500 base pair (bp) spacer element. Lentiviral particles were produced by transfecting 293T cells with p2574 and supplying gag-pol-rev-tat in trans. VSV-G was used as viral envelope protein. Following lentiviral transduction of Jurkat cells, all cells that spontaneously expressed GFP were removed by cell sorting. The GFP-negative population was then activated with PMA to identify all cells that would harbor an inducible LTR-GFP-LTR integration event. Cells that turned GFP-positive following stimulation were again selected by cell sorting. GFP expression in this population ceased after a few days leaving a population of GFP-negative reporter cells. The amount of founder cells for this population is calculated to represent >50,000 individual integration events.
To determine the ability of dactinomycin to prime a latent HIV-2 infection, a latently HIV-2 infected population of GFP reporter T cells were tested. Briefly, to create the latent HIV-2 infected population, J2574 reporter cells were infected with HIV-2 7312A and a population of latently HIV-2 infected cells was generated by removing the actively infected, GFP-positive cells using a fluorescence activated cell sorter.

[6] = tested on: latently HIV-1 infected reporter T cell lines (5F3, 8E12, CA5 and 12D4); assay: HIV-1 reactivation in latently HIV-1 infected reporter T cell lines (EGFP, flow cytometry); format: cell-based
Experimental: FIGS. 1A and 1B show culture supernatants from Massilia timonae reactivate latent HIV-1 infection. […] Untreated control cells and HRF-treated cells were subjected to flow cytometric analysis to determine enhanced green fluorescent protein (EGFP) expression as a direct and quantitative marker of HIV-1 expression 24 hours post stimulation. FSC/SSC dot plots are represented to evaluate cell viability as a function of changes in the FSC (cell size)—SSC (granularity) phenotype of the cells. FIG. 1B is a histogram showing the reproducibility of the observed HIV-1 reactivation. Three independent preparations of HRF (batches HRF1-3) on four different latently infected T cell lines (5F3, 8E12, CA5 and 12D4) were tested. The percentage of EGFP positive cells following stimulation is depicted in the histogram. Cell culture supernatants of Pseudomonas aeruginosa cultures, grown under similar conditions, were used as specificity controls.

[7] = tested on: latently HIV-1 infected monocytic THP89GFP cells; assay: HIV-1 reactivation in latently HIV-1 infected monocytic THP89GFP cells; format: cell-based
[8] = target: T1, positive transcription elongation factor (P-TEFb), a complex of CDK9 and Cyclin T1 (UniProt P50750 1-372; O60563 1-726); assay: glycerol gradient (10-45%) sedimentation of J89GFP cell lysates, Western blot of fractions with anti-CDK9 and anti-HEXIM-1
T1 construct: also called CDK9/CycT1; small complex
Experimental: Each gradient fraction was separated on a 10% SDS-PAGE gel and transferred by Western blot. […] Band densities were determined using ImageJ and are presented as relative band density. […] Band densities were determined using ImageJ and are presented as relative band density.
Ten million J89GFP or CA5 T cells were left untreated or treated with 0.004 μg/mL, […] 1 μg/mL dactinomycin for 18 hours or 1 hour, respectively. Cells were washed twice with cold PBS, then lysed for 30 minutes on ice in lysis buffer (0.5% TritonX100, 20 mM HEPES (pH7.9), 150 mM NaCl, 20 mM KCl, 2 mM MgCl2, 1 mM DTT, 0.2 mM EDTA, and protease inhibitor cocktail (P8340; SIGMA)), followed by centrifugation at 14,000 rpm for 10 minutes. The same amount of protein lysate was fractionated on 5 ml of a 10-45% glycerol gradient in lysis buffer in a SW-Ti55 rotor (Beckman Coulter; Miami, Fla.) for 16 hours at 45,000 rpm. Fractions were resolved on 10% SDS-PAGE and transferred to polyvinylidene fluoride membrane. The antibodies used for Western blotting were rabbit anti-Cdk9 (sc-484; Santa Cruz Biotechnology; Santa Cruz, Calif.) and rabbit anti-HEXIM1 (ab25388; Abcam; Cambridge, Mass.), respectively. […]

T1 sequence (P50750 whole entry, chain 1 of 2): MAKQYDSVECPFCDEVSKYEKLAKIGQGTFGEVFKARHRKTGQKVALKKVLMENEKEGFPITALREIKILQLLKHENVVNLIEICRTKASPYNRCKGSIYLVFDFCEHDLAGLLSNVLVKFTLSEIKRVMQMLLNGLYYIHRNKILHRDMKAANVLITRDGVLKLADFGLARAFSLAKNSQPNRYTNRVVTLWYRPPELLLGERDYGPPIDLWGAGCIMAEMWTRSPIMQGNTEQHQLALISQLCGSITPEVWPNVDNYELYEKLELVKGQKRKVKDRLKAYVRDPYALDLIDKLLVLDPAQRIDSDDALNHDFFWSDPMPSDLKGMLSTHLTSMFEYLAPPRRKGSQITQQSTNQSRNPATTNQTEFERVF
T1 sequence (O60563 whole entry, chain 2 of 2): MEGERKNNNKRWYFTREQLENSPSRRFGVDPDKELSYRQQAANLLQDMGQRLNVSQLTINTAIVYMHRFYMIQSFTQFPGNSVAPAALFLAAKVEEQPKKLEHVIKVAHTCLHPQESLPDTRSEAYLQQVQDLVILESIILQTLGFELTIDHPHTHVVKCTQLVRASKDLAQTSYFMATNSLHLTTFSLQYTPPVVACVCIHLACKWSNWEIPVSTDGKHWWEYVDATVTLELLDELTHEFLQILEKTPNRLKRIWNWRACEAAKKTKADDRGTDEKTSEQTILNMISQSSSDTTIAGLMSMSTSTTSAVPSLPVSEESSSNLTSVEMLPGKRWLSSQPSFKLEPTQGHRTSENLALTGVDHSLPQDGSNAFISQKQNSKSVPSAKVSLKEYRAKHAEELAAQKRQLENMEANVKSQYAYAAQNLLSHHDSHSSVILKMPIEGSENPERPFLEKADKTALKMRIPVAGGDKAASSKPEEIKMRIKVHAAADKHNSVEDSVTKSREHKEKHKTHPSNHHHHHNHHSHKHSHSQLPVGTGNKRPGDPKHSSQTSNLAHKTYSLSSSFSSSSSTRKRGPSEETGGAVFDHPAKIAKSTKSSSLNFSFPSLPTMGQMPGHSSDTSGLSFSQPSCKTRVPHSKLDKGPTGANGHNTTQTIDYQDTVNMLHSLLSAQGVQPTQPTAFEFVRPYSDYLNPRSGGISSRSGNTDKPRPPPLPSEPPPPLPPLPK

Cc1c2oc3c(C)ccc(C(=O)N[C@@H]4C(=O)N[C@H](C(C)C)C(=O)N5CCC[C@H]5C(=O)N(C)CC(=O)N(C)[C@@H](C(C)C)C(=O)O[C@@H]4C)c3nc-2c(C(=O)N[C@@H]2C(=O)N[C@H](C(C)C)C(=O)N3CCC[C@H]3C(=O)N(C)CC(=O)N(C)[C@@H](C(C)C)C(=O)O[C@@H]2C)c(N)c1=O [dactinomycin] (I: T[dV]P[Sar][NMeV] / II: T[dV]P[Sar][NMeV]; ester I:1-I:C, II:1-II:C; linker I:N-II:N via Actinocin(9to1))
effect on active HIV-1 infection / transcription (GFP MCF) [1]: without boosting active HIV-1 infection | effect on active HIV-1 infection / transcription (GFP MCF) ([1]; listed as Dactinomycin): did not boost active infection, but rather inhibited active infection | priming effect, virus integrated in converse transcriptional orientation [2]: exerted its priming effect in each integration scenario | concentration at which it starts to act as an inhibitor of HIV-1 expression and reactivation (onset of drug toxicities) [3]: ≥ 10 ng/mL | priming effects with low concentrations of TNF-α or PMA as reactivating agents [3]: also observed | concentration of optimal priming activity ([3]; 18 hours pretreatment, then sub-optimal HRF or TNF-α): about 4 ng/ml and ~3.18 nM | priming effect, virus integrated in same transcriptional orientation as host-gene ([3]; TNF-α after 4 ng/ml dactinomycin for 18 hours): exerted its priming effect in each integration scenario | priming effect on HIV-1 reactivation by sub-optimal dose of HRF ([3]; pretreatment with increasing concentrations, then sub-optimal HRF): strong priming effect | lowest concentration at which a priming effect was observed ([3]; then sub-optimal HRF or TNF-α): 0.5 ng/mL | priming for reactivation in combination with sub-optimal TNF-α ([4]; 18 hours pretreatment): potently primed latent HIV-1 infection for reactivation | HIV-1 reactivating capacity by itself ([4]; no activator): did not exhibit HIV-1 reactivating capacity by itself | concentration range of efficient priming of latent HIV-2 infection ([5]; 18 hours pretreatment, then sub-optimal HRF): 2 to 8 ng/mL | HIV-2 reactivation levels on costimulation ([5]; dactinomycin pretreatment plus sub-optimal HRF): up to 90%

lipopolysaccharide
reactivation of latent HIV-1 infection [6]: only reactivated HIV-1 infection in the latently HIV-1 infected monocytic THP89GFP cells | reactivation of latent HIV-1 infection [7]: reactivated HIV-1 infection

B1: HEXIM-1 (other, UniProt O94992 1-359, looked up)
chain: MAEPFLSEYQHQPQTSNCTGAAAVQEELNPERPPGAEERVPEEDSRWQSRAFPQLGGRPGPEGEGSLESQPPPLQTQACPESSCLREGEKGQNGDDSSAGGDFPPPAEVEPTPEAELLAQPCHDSEASKLGAPAAGGEEEWGQQQRQLGKKKHRRRPSKKKRHWKPYYKLTWEEKKKFDEKQSLRASRIRAEMFAKGQPVAPYNTTQFLMDDHDQEEPDLKTGLYSKRAAAKSDDTSDDDFMEEGGEEDGGSDGMGGDGSEFLQRDFSETYERYHTESLQNMSKQELIKEYLELEKCLSRMEDENNRLRLESKRLGGDDARVRELELELDRLRAENLQLLTENELHRQQERAPLSKFGD
binding result [8]: binds
